The values that follow come from ChEMBL document CHEMBL3507680, “University of Dundee, Gates Library screen for HepG2 cell viability”.

This data set in a line: Human HepG2 cell viability assay in 384 well format. On the set-up: dose 125 nL, time 70.5 hour; cytotoxicity at 70.5 h: concentration not given beside the values. It is filed as toxicity, cell-based. As to conditions: HepG2 cells, read-out: Inhibition.
With `COCCc1noc(C2CCN(C(=O)Nc3cccs3)CC2)n1`, the cytotoxicity at 70.5 h is -4.24%.
As for `COCC(=O)N1CCc2[nH]c(=O)ccc2C1`, the cytotoxicity at 70.5 h is -8.99%.
With `O=c1ccc2c([nH]1)CCN(S(=O)(=O)c1ccc3c(c1)CCCC3)C2` the figure was 3.55%; with `CC(C)Oc1ccc(C(=O)N2CCCSCC2CN(C)C)cc1` (stereo unspecified), 26.1%.
On to `CN(C)CC1CSCCCN1C(=O)c1ccsc1` (stereo unspecified), for which the cytotoxicity at 70.5 h was -6.74%.
In the case of `CN(C)CC1CSCCCN1S(=O)(=O)c1ccc(C(F)(F)F)cc1` (stereo unspecified), the cytotoxicity at 70.5 h is -3.11%.
For the compound `O=C(c1ccc2[nH]ccc2c1)N1CCCSCC1CN1CCCC1` (stereo unspecified), the cytotoxicity at 70.5 h was -2.63%.
With `O=C(COc1ccc(F)cc1)N1CCCSCC1CN1CCOCC1` (stereo unspecified) the figure was 5.05%; with `Cc1cccc(NC(=O)C2CSc3ncc(C)c(=O)n3C2)n1` (stereo unspecified), -9.15%; with `Cc1ccncc1NC(=O)C1CSc2ncc(C)c(=O)n2C1` (stereo unspecified), 18.9%.
With `CCc1c(C)nc2n(c1=O)CC(C(=O)NCc1cccs1)CS2` (stereo unspecified), the cytotoxicity at 70.5 h was determined as 23%.
Regarding `COc1cc(C(=O)NCCc2ccc(OC)c(OC)c2)on1`, the cytotoxicity at 70.5 h is -2.98%.
For `O=C(Cc1cccs1)NCC1(O)CCc2ccccc2C1` (stereo unspecified), the cytotoxicity at 70.5 h is -7.27%.
For `CN(C)c1ccc(C(O)CNC(=O)NCCCc2ccccc2)cc1` (stereo unspecified), the cytotoxicity at 70.5 h was -9.74%.
As for `CSc1ccc(C(O)CNS(=O)(=O)C2CC2)cc1` (stereo unspecified), the cytotoxicity at 70.5 h was determined as 2.97%.
Regarding `COCCN(Cc1ccoc1)S(=O)(=O)c1ccc(F)c(C)c1`, the cytotoxicity at 70.5 h is -11%.
In the case of `CCOCC(=O)NCCC(O)c1ccoc1` (stereo unspecified), the cytotoxicity at 70.5 h is -11.9%.
Regarding `Cc1cc(C(O)CCNC(=O)COc2ccccc2C)c(C)o1` (stereo unspecified), the cytotoxicity at 70.5 h was -2.27%.
With `CSc1ncccc1C(=O)NCCC(O)c1cc(C)oc1C` (stereo unspecified), the cytotoxicity at 70.5 h is -1.76%.
For `COC1(CNC(=O)c2ccc(F)c(F)c2)CCSC1` (stereo unspecified), the cytotoxicity at 70.5 h was -11.7%.
On to `O=C(Nc1cccnc1)c1ccc(-n2cncn2)nn1`, for which the cytotoxicity at 70.5 h amounted to 13.8%.
In the case of `Cc1csc(C(=O)NCCn2nc(-n3cncn3)ccc2=O)c1`, the cytotoxicity at 70.5 h is -6.83%.
On to `O=C(NCCn1nc(-n2cncn2)ccc1=O)c1ccsc1`, for which the cytotoxicity at 70.5 h was -4.55%.
Regarding `Cc1cc(S(=O)(=O)N2CCC(S(C)(=O)=O)C2)ccc1F` (stereo unspecified), the cytotoxicity at 70.5 h was -5.71%.
Take `Cc1ccc(S(=O)(=O)N2CCC(S(C)(=O)=O)CC2)cc1C`: the cytotoxicity at 70.5 h is -0.502%.
Turning to `O=C(Cn1c(=O)oc2ccccc21)N1Cc2cncnc2C1`, the cytotoxicity at 70.5 h is -5.29%.
On to `Cn1cnc(S(=O)(=O)NCC(C)(O)c2ccc3c(c2)OCO3)c1` (stereo unspecified), for which the cytotoxicity at 70.5 h is -6.14%.
Consider `Cn1cnc(S(=O)(=O)NCC2(O)CCOc3ccccc32)c1` (stereo unspecified), for which the cytotoxicity at 70.5 h is -4.65%.
For the compound `Cc1oncc1C(=O)NCC1(O)CCc2ccccc2C1` (stereo unspecified), the cytotoxicity at 70.5 h amounted to 0.91%.
Take `Cn1cc(S(=O)(=O)NCC2CCN(C(=O)c3ccoc3)CC2)cn1`: the cytotoxicity at 70.5 h is -2.52%.
With `O=C(Cc1ccsc1)NCCc1ccoc1` the figure was -8.57%; with `Cc1nsc(C(=O)NCCc2ccccc2)n1`, -8.39%.
The same measure for `Cc1nc(N(C)C)nc(C)c1NC(=O)c1ccccc1C(F)(F)F`: -11%.
As to `Cc1nc(N2CCOCC2)nc(C)c1NC(=O)Cc1ccc(Cl)cc1`, the cytotoxicity at 70.5 h was 13.5%.
With `Cc1nc(N(C)C)nc(C)c1NS(=O)(=O)c1ccccc1Cl` the figure was -8.77%; with `Cc1nc(N2CCCC2)nc(C)c1NS(C)(=O)=O`, 0.704%.
Regarding `Cc1cc(C)c(S(=O)(=O)Nc2c(C)nc(N3CCCC3)nc2C)cc1C`, the cytotoxicity at 70.5 h worked out at 2.48%.
For `Cc1nc(N2CCCC2)nc(C)c1NS(=O)(=O)c1ccccc1F`, the cytotoxicity at 70.5 h was -1.28%.
For the compound `CC(C)CC(=O)N1CCN(c2cc(N(C)C)cnn2)CC1`, the cytotoxicity at 70.5 h was -3.64%.
With `COc1ncc(NS(=O)(=O)c2cccc(C)c2)c(OC)n1`, the cytotoxicity at 70.5 h was determined as 21.8%.
On to `COc1ncc(NS(=O)(=O)c2ccc(OC)c(C)c2)c(OC)n1`, for which the cytotoxicity at 70.5 h was 7.97%.
As to `Cc1nnsc1C(=O)NCCn1ccc(-c2ccncc2)n1`, the cytotoxicity at 70.5 h amounted to 18.8%.
Consider `O=C(NCCn1ccc(-c2ccncc2)n1)c1ccc2c(c1)OCO2`, for which the cytotoxicity at 70.5 h was 1.76%.
Take `O=S(=O)(NCCn1ccc(-c2ccncc2)n1)C1CC1`: the cytotoxicity at 70.5 h amounted to 0.267%.
Turning to `CC(C)(C)C(=O)NCCn1ccc(-c2ccccn2)n1`, the cytotoxicity at 70.5 h was -1.26%.
`CS(=O)(=O)NCCn1ccc(-c2cccs2)n1`: the cytotoxicity at 70.5 h is -6.85%.
As for `Cn1nc(CNS(=O)(=O)Cc2ccccc2F)c2c1CCCC2`, the cytotoxicity at 70.5 h was -5.77%.
With `Cc1nnsc1C(=O)NCc1nn(C)c2c1COCC2`, the cytotoxicity at 70.5 h was -13.8%.
On to `COC(=O)c1ccc(C(=O)NCc2nn(C)c3c2COCC3)cc1`, for which the cytotoxicity at 70.5 h was -4.89%.
The same measure for `COCCN1CCC2(CC1)CN(Cc1cccc(C)n1)C(=O)CO2`: 0.221%; for `Cc1cccc(CN2CC3(CCN(C(=O)C4CC4)CC3)OCC2=O)n1`: 1.74%; for `Cc1ccc(N2CCc3sc(C(=O)NCCN4CCCC4)cc32)nn1`: -0.377%.
On to `COCCNC(=O)[C@H]1C[C@@H]2CCN(c3ncccn3)C[C@@H]2O1`, for which the cytotoxicity at 70.5 h is -4.51%.
For `Cc1ccnc(OC[C@]23COC[C@H]2CN(C(=O)c2ccnn2C)C3)n1`, the cytotoxicity at 70.5 h is -8.86%.
For the compound `CC(C)NC(=O)N1CCCC2(CC(C(=O)Nc3ccccc3)=NO2)C1` (stereo unspecified), the cytotoxicity at 70.5 h amounted to 16.9%.
Take `Cn1cc(CN2CCC(F)(F)C3(CCN(c4cccc(F)c4)C3)C2)cn1` (stereo unspecified): the cytotoxicity at 70.5 h amounted to 43.6%.
In the case of `CCOCc1ncn2c1CN(C(=O)Nc1ccccc1CC)CC2`, the cytotoxicity at 70.5 h worked out at 16.8%.
As for `CN1C(Cn2cccn2)C[C@@H]2CN(Cc3nccs3)CC[C@@H]21` (stereo partly specified), the cytotoxicity at 70.5 h is -5.16%.
As for `CC(C)COCC1CN(Cc2cnn(C)c2)Cc2ncn(C)c21` (stereo unspecified), the cytotoxicity at 70.5 h was -7.87%.
For `CN(C)CCNC(=O)c1cc(-c2cnc(N(C)C)nc2)cn1CC1CC1`, the cytotoxicity at 70.5 h was -6.44%.
Take `CCS(=O)(=O)N1C[C@H]2CN(Cc3ccc(OC)cc3)C(=O)[C@H]2C1`: the cytotoxicity at 70.5 h is -10.9%.
Regarding `CCS(=O)(=O)N1C[C@H]2CN(Cc3cccc(C)c3)C(=O)[C@H]2C1`, the cytotoxicity at 70.5 h is -10.5%.
With `Cc1ccc(N2CC[C@H]3OCC[C@@]3(C(=O)N3CCCO3)C2)nn1` the figure was -4.42%; with `CC(C)Nc1ncnc2c1CCN(C(=O)[C@H]1CCCO1)CC2`, -6.46%.
In the case of `Cc1ccc(N2CC[C@H](O)[C@@H]2Cc2cnn(C)c2)nn1`, the cytotoxicity at 70.5 h is -6.12%.
`O=C(NCc1ccccc1)N1CCC2(CC(=O)N(c3ccccc3)C2)C1` (stereo unspecified): the cytotoxicity at 70.5 h was -5.57%.
Regarding `Cc1cc(C(=O)N2CCc3c(CN(C)C)nn(C)c3C2)[nH]n1`, the cytotoxicity at 70.5 h was -12.8%.
The same measure for `CN(C)Cc1nn(C)c2c1CN(C(=O)c1cccc(C#N)c1)C2`: -11.5%; for `Cc1cccc(CN2CC3(CCN(S(=O)(=O)C4CC4)CC3)OCC2=O)n1`: -0.285%.
For the compound `CNC(=O)CN1CC[C@H]2CN(C(=O)c3ccoc3)C[C@H]2C1`, the cytotoxicity at 70.5 h was -4.77%.
The same measure for `O=C(NCc1ccco1)[C@H]1C[C@@H]2CCN(c3nncs3)C[C@H]2O1`: -9.42%; for `COCCNC(=O)[C@@H]1C[C@@H]2CCN(c3ncccn3)C[C@H]2O1`: 24.2%; for `COCCn1cc2c(n1)C(CNCc1cccc(OC)c1)OCC2` (stereo unspecified): 20.4%.
Consider `COCC1CC2(CCN(C(=O)c3occc3C)CC2)CN1C(C)C` (stereo unspecified), for which the cytotoxicity at 70.5 h was 20.9%.
Turning to `O=C1[C@H]2CN(S(=O)(=O)c3ccccc3)C[C@H]2CN1Cc1cccnc1`, the cytotoxicity at 70.5 h was -15.6%.
For `CN(C)c1ncc(-c2cc(C(=O)NCCC#N)n(CC3CC3)c2)cn1`, the cytotoxicity at 70.5 h was -12.9%.
As for `COCCCNC(=O)c1cc(-c2cnc(N(C)C)nc2)cn1CC1CC1`, the cytotoxicity at 70.5 h was -6.95%.
With `c1cncc(CN2C[C@H]3CCC[C@@H](CNc4cnccn4)[C@H]3C2)c1`, the cytotoxicity at 70.5 h is -4.05%.
`O=C1[C@H]2CN(S(=O)(=O)C3CC3)C[C@H]2CN1Cc1cccnc1`: the cytotoxicity at 70.5 h was -8.9%.
With `CN(C)C(=O)[C@@H]1CCO[C@@H]2CCN(CCOCc3ccccc3)C[C@H]21` the figure was 20.6%.
For `O=C(NCc1cccnc1)N1CCC2(CC(=O)N(c3ccsc3)C2)C1` (stereo unspecified), the cytotoxicity at 70.5 h is -6.34%.
In the case of `CC1=N[C@@]2(CC[C@@H]3CN(Cc4ccccc4C)C[C@@H]32)C(=O)N1CC1CC1`, the cytotoxicity at 70.5 h was -9.24%.
The same measure for `O=C(C1CCCO1)N1CCc2ncnc(NC3CCC3)c2CC1` (stereo unspecified): -15.3%; for `N#Cc1cccc(CN2C[C@H](NC(=O)C3CC3)[C@H]3OCCC[C@H]32)c1`: -14%.
`Cc1cccc(CN2CC3(CCN(Cc4ccoc4)CC3)OCC2=O)n1`: the cytotoxicity at 70.5 h was determined as 17.7%.
As to `Cn1cc(CN2CCC(F)(F)C3(CCN(c4ccccn4)C3)C2)cn1` (stereo unspecified), the cytotoxicity at 70.5 h was -14.4%.
For the compound `CC(C)N(C)Cc1cnc2n1CCN(Cc1ccsc1)C2`, the cytotoxicity at 70.5 h is -8.42%.
For `Cn1cc(CN2CCC(F)(F)C3(CCN(c4cccnc4)C3)C2)cn1` (stereo unspecified), the cytotoxicity at 70.5 h was -9.49%.
As for `Cc1ccc(CN2CCn3c(CN(C)C(C)C)cnc3C2)s1`, the cytotoxicity at 70.5 h is -6.07%.
Consider `CC(C)N(C)Cc1cnc2n1CCN(Cc1ccc(F)cc1)C2`, for which the cytotoxicity at 70.5 h is -9.32%.
Turning to `COCc1cncc2c1CCN(Cc1cccs1)C2`, the cytotoxicity at 70.5 h was found to be 0.63%.
Consider `COCCN1CCOCC2(CCCN(Cc3cccc(F)c3)C2)C1` (stereo unspecified), for which the cytotoxicity at 70.5 h is -5.38%.
For `Cc1ccc(CN2CC[C@H]3[C@H](CC(Cn4cccn4)N3C)C2)s1` (stereo partly specified), the cytotoxicity at 70.5 h was 15.9%.
Consider `CN1[C@H](Cn2cccn2)C[C@@H]2CN(Cc3cccs3)CC[C@@H]21`, for which the cytotoxicity at 70.5 h turned out to be 18.9%.
For the compound `CN1C(Cn2cccn2)C[C@@H]2CN(Cc3cccnc3)CC[C@@H]21` (stereo partly specified), the cytotoxicity at 70.5 h is -6.35%.
Turning to `c1ccc(CN2CCc3c(COCc4ccncc4)cncc3C2)nc1`, the cytotoxicity at 70.5 h is -4.58%.
